Common to all, as to type: cell-based
Assay [1] deals with E. coli (ATCC BAA 1427). Nature of the assay: Minimal bactericidal concentration by serial 2-fold dilution. The following applies: 250 μg/mL (0.025% w/w), positive control. The protocol:
(§1) The minimal bactericidal concentration (MBC) of ethyl lauroyl arginate hydrochloride (LAE) was determined against S. aureus (ATCC 6538), P. aeruginosa (ATCC 15442), and E. coli (ATCC BAA 1427) by serial 2-fold dilution experiments. A solution of chlorhexidine (0.025% w/w) was used as a positive control and comparator.

For assay [2], the system named is S. aureus (ATCC 6538). The assay is described as above. To be noted: 250 μg/mL (0.025% w/w), positive control. Here is the method:
as §1

For assay [3], the system named is P. aeruginosa (ATCC 15442). Described as above. To be noted: 250 μg/mL (0.025% w/w), positive control. The protocol: as §1
For a further assay, the system named is P. aeruginosa. Nature of the assay: Chequerboard assay, FIC and synergy analysis. The following applies: Pseudomonas aeruginosa. Here is the method: (§2) Chlorhexidine gluconate (CHG) and ethyl lauroyl arginate hydrochloride (LAE) were analyzed by chequerboard assay with each test organism to determine potential additive, synergistic, and antagonistic activity. The test organisms S. aureus, P. aeruginosa, and E. coli were tested at ranges of chlorhexidine gluconate (0.122-15.625 μg/mL, 1.25-160 μg/mL, and 0.125-16 μg/mL, respectively) and ethyl lauroyl arginate hydrochloride (LAE) (0.117-15 μg/mL, 0.4688-60 μg/mL, and 0.2344-30 μg/mL, respectively). FIC was calculated by the following Equation 2: […]

The next assay deals with E. coli. Put plainly: Chequerboard assay, FIC and synergy analysis. To be noted: Escherichia coli. The protocol:
as §2

A further assay deals with S. aureus. Put plainly: Chequerboard assay, FIC and synergy analysis. The following applies: Staphylococcus aureus. Here is the method:
as §2

The subject of assay [4] is E. coli (ATCC BAA 1427). Put plainly: Minimum inhibitory concentration / growth inhibition by serial 2-fold dilution. The following applies: Escherichia coli, BAA1427; 250 μg/mL (0.025% w/w), positive control. Here is the method:
(§3) The minimal inhibitory concentration (MIC, the minimum inhibitory concentration required for 90% growth reduction) of ethyl lauroyl arginate hydrochloride was determined against S. aureus (ATCC 6538), P. aeruginosa (ATCC 15442), and E. coli (ATCC BAA 1427) by serial 2-fold dilution experiments. A solution of chlorhexidine (0.025% w/w) was used as a positive control and comparator.

In assay [5] the test system is S. aureus (ATCC 6538). The description is as above. The following applies: Staphylococcus aureus, ATCC6538, read-out: Average Growth Inhibition (%). Here is the method:
as §3

Assay [6] concerns P. aeruginosa (ATCC 15442). The assay is described as above. The following applies: Pseudomonas aeruginosa, ATCC15442, read-out: Average Growth Inhibition (%). The protocol:
as §3

Setting [7] is: read-out: MIC of CHG in Presence of LAE.

Read-outs that look alike come from different tables or passages of the source.

For orientation: MIC means the least concentration at which growth counts as inhibited. In general, inhibition refers to the change of the read-out against control, counted positive when it falls. As to `N=C(NCCCCCCNC(=N)NC(=N)Nc1ccc(Cl)cc1)NC(=N)Nc1ccc(Cl)cc1` [Chlorhexidine gluconate, reference compound], the CFU/mL (with E. coli (ATCC BAA 1427) [1]; in the assay with S. aureus (ATCC 6538) [2]; in assay [3]) was 0 CFU/mL in each case. Further, the “Number of Colonies” value was 0 in the assay on E. coli (ATCC BAA 1427) [1]; “no colonies” in the assay with E. coli (ATCC BAA 1427) [1] (listed as chlorhexidine); 0 with S. aureus (ATCC 6538) [2]; “no colonies” in the assay on S. aureus (ATCC 6538) [2] (listed as chlorhexidine); 0 in assay [3]; “no colonies” in [3] (listed as chlorhexidine). The MIC worked out at 40 µg/mL in the assay on P. aeruginosa (read-out: MIC of CHG Alone); 10 µg/mL in the assay on P. aeruginosa (setting [7]); 8 µg/mL in the assay with E. coli (read-out: MIC of CHG Alone); 4 µg/mL with E. coli (setting [7]); 1.95 µg/mL with S. aureus (read-out: MIC of CHG Alone); 0.977 µg/mL with S. aureus (setting [7]). Further, the inhibition at 250 µg/mL is 63% in the assay with E. coli (ATCC BAA 1427) [4], 121% in the assay on S. aureus (ATCC 6538) [5] and 81% in assay [6].

(Values after patent publication US12629468B2, “Devices and methods for delivering synergistic active agents to target sites” (IRRIMAX Corporation, priority 2023, dated 2026).)
